According to US8188070B2, “Method of treating neurological diseases and disorders” (The Trustees of the University of Pennsylvania, priority 2002, dated 2012):

Assays:
[1] = test system: S5 cells; assay: High throughput screen: ATP level (viable cells) in S5 cells with reduced SMN; format: cell-based, chicken; conditions: for EC50 / Emax: Gallus gallus, S5 cells, 18 ng/ml tet, 0.5 to 20 μM; for EC50: ATP level, read-out: EC50 (effective concentration for half maximum activity); for Emax: percentage increase of ATP level relative to cells treated with DMSO only, read-out: Maximum Activity (%)
Description: In the SMN conditional knockout cell line, S5, the endogenous smn gene is disrupted by homologous recombination, and the SMN protein is stably expressed from an SMN cDNA under the control of a tetracycline (tet)-repressible promoter (Wang and Dreyfuss (2001) supra).
Libraries of compounds were screened against the S5 cell line. […] The cells were incubated for an additional 72 hours and the number of viable cells in each well was determined by measuring the ATP level in the cell lysate, a sensitive assay commonly used to assess cell viability in HTS (Crouch, et al. (1993) J. Immunol. Methods 160:81-88). […] Activity of the compounds was measured as the difference between the sample and the average of the controls.
(§1) The activities of all compounds were further examined at concentrations ranging from 0.5 to 20 μM. […] The activity of each compound was determined as a percentage increase of the ATP level, reflecting the number of viable cells, relative to cells treated with an equal volume of DMSO only.
The chicken pre-B cell line DT40, the smn conditional knockout cell line S5 and the asf/sf2 conditional knockout cell line ASF-DT40 (Wang, et al. (1996) supra) were maintained using known methods (Wang and Dreyfuss (2001) supra). To reduce the SMN level, S5 cells were incubated with 18 ng/ml tetracycline hydrochloride (tet). Similarly, ASF-DT40 cells were treated with 14 ng/ml tet to partially deplete the ASF/SF2 protein.
After being incubated in medium containing 18 ng/ml tet for 24 hours, S5 cells were dispensed into 96-well plates at 120 μl per well. Compounds were added to these cells by pipetting 0.4 μl of the 3 mM libraries into each well to reach a final concentration of 10 μM. The 96-well plates were further incubated for 72 hours at 37° C. with 5% CO2. […] Luminescence was read on a Wallac Victor2 multi-channel plate reader (Perkin-Elmer, Boston, Mass.). The cellular ATP level is a direct measure of the number of viable cells in each well (Crouch, et al. (1993) supra). Data from luminescence readings were analyzed with MICROSOFT® Excel.

[2] = test system: S5 cells; conditions: for highest concentration at which there is no apparent cell toxicity: S5 cells
Description: as §1
SMN protein levels were also determined. Total cell lysates from treated cells were prepared and analyzed by immunoblotting with an anti-SMN antibody. […] The same blots were probed with antibodies against two other abundant proteins, Y14^10 and β-tubulin, to provide an internal control for the amount of cell lysate loaded on the gel.

[3] = test system: S5 cells; assay: Cell number determination in S5 cells cultured with 18 ng/ml tet; format: cell-based, chicken; conditions: after 96 hours
Description: To determine an accurate measure of the number of viable cells, cell numbers were also determined.

[4] = high-throughput screening system

Compound	EC50 [1] [µM]	Emax [1] [%]	also measured
Clc1ccc(C(c2ccc(Cl)cc2)n2cc[n+](CC(OCc3ccc(Cl)cc3Cl)c3ccc(Cl)cc3Cl)c2)cc1 (centres unmarked) [Calmidazolium, reference compound]			concentration improving growth of S5 cells (as low as) [1, 4]: 215 nM; growth of S5 cells [1, 4]: improved the growth of S5 cells
CN(C)CCC=C1c2ccccc2CCc2ccccc21 [Compound 1]	3	30	
CNCCCN1c2ccccc2CCc2ccccc21 [Compound 2]	3	30	
CN(C)CC/C=C1/c2ccccc2COc2ccccc21 [Compound 3]	5	60	
CN(C)CCCN1c2ccccc2CCc2ccccc21 [Compound 4]	4	35	
CN1CCN2c3ccccc3Cc3ccccc3C2C1 (centres unmarked) [Compound 5]	5	75	cell toxicity [2]: low cell toxicity
CC(CN(C)C)CN1c2ccccc2CCc2ccccc21 (centres unmarked) [Compound 6]	2.5	50	
CN(C)CCC=C1c2ccccc2C=Cc2ccccc21 [Compound 7]	3	45	
CSc1ccc2c(c1)C(N1CCN(C)CC1)Cc1ccccc1S2 (centres unmarked) [Compound 8]	< 1	25	
CN(C)CCCN1c2ccccc2CCc2ccc(Cl)cc21 [Compound 9]	1.5	50	
CN1CCN(C2=Nc3cc(Cl)ccc3Nc3ccccc32)CC1 [Compound 10]	3	30	
CN(C)CCCN1c2ccccc2Sc2ccccc21 [Compound 11]	2.5	60	
CC(CN1c2ccccc2Sc2ccccc21)N(C)C (centres unmarked) [Compound 12]	2.5	75	increase in cell number over control cells treated with DMSO alone [3]: three to four-fold increase in cell number
CC(CN(C)C)CN1c2ccccc2Sc2ccccc21 (centres unmarked) [Compound 14]	2.5	40	
CCN(CC)C(C)CN1c2ccccc2Sc2ccccc21 (centres unmarked) [Compound 15]	2	70	
CCC(=O)c1ccc2c(c1)N(CC(C)N(C)C)c1ccccc1S2 (centres unmarked) [Compound 16]	1	60	highest concentration at which there is no apparent cell toxicity [2]: 4 µM
CSc1ccc2c(c1)N(CCC1CCCCN1C)c1ccccc1S2 (centres unmarked) [Compound 17]	1.5	80	increase in cell number over control cells treated with DMSO alone [3]: three to four-fold increase in cell number; highest concentration at which there is no apparent cell toxicity [2]: 4 µM
CN(C)CCCN1c2ccccc2Sc2ccc(C(F)(F)F)cc21 [Compound 18]	1.5	25	
CN(C)CC/C=C1\c2ccccc2Sc2ccc(Cl)cc21 [Compound 19]	2	30	
CN(C)CCCN1c2ccccc2Sc2ccc(Cl)cc21 [Compound 20]	1	35	highest concentration at which there is no apparent cell toxicity [2]: 4 µM
CN1CCC(OC(c2ccccc2)c2ccccc2)CC1 [Compound 21]		55	
O=C(CCCN1CC=C(n2c(=O)[nH]c3ccccc32)CC1)c1ccc(F)cc1 [Compound 22]		50	
CCN1CCCC(OC(=O)C(c2ccccc2)c2ccccc2)C1 (centres unmarked) [Compound 23]		50	
CN1Cc2c(N)cccc2C(c2ccccc2)C1 (centres unmarked) [Compound 24]		35	
COC(=O)[C@H](c1ccccc1Cl)N1CCc2sccc2C1 [Compound 25]	7	100	
Cc1nc2sccn2c(=O)c1CCN1CCC(=C(c2ccc(F)cc2)c2ccc(F)cc2)CC1 [Compound 27]		80	
O=C(CCCN1CCC2(CC1)C(=O)NCN2c1ccccc1)c1ccc(F)cc1 [Compound 29]		140	
COc1ccc(S(=O)(=O)Nc2ccccc2CN(C)CC=Cc2ccc(Cl)cc2)cc1 [KN-92, 2-[N-(4-Methoxybenzenesulfonyl)] amino-N-(4-chlorocinnamyl)-N-methylbenzylamine, reference compound]			growth of S5 cells [1, 4]: did not affect the growth of S5 cells
COc1ccc(S(=O)(=O)N(CCO)c2ccccc2CN(C)CC=Cc2ccc(Cl)cc2)cc1 [KN-93, reference compound]			growth of S5 cells [1, 4]: improved the growth of S5 cells
